According to publication PMC5807063 (Science (New York, N.Y.), 2017):

How the values were obtained:
[1] = target: T1, HNE in CF patient sputum (Homo sapiens, UniProt P08246); test: HNE inhibition in CF patient sputum; settings: sputum samples of CF patients
T1 sequence (P08246 30-267): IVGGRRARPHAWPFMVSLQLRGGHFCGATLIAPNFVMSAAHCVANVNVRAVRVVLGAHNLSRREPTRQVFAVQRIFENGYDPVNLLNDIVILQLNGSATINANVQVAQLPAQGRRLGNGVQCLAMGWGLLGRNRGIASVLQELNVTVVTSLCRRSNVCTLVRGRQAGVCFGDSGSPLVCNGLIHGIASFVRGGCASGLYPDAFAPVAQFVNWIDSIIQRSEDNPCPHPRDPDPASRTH

[2] = target: T2, purified HNE (human neutrophil elastase) (Homo sapiens, UniProt P08246); test: Inhibition of purified human neutrophil elastase
T2 sequence (P08246 30-267): T1 sequence (P08246 30-267)

inhibitory activity in CF patient sputum (in words) [1]: potencies diminished
HNE inhibitory activity (in words) [2]: low IC50 values
Substance: BAY 85-8501 [compound 54]
